{
  "source": "patent EP1274675B1",
  "about": "“COMPOUNDS, COMPOSITIONS AND METHODS FOR PREVENTING NEURODEGENERATION IN ACUTE AND CHRONIC INJURIES IN THE CENTRAL NERVOUS SYSTEM” (Neurotech Co., Ltd., priority 2000, dated 2001)",
  "key": {"[1]": {"tested_on": "Mouse cortical cell cultures", "assay": "NMDA neurotoxicity in cortical cell cultures (LDH release)", "format": "cell-based", "settings": "for neuroprotective effect against NMDA neurotoxicity relative to BAS: comparison in words", "protocol": "(§1) Primary cortical cell cultures from embryonic mice were prepared and used to examine neuroprotective action of compounds. Mouse cortical cell culture system has been extensively used to study mechanisms and pharmacological intervention of neuronal death in neurological diseases. In brief, mouse cerebral cortices were removed from brains of the 15 day-old-fetal mice, in accordance with a protocol approved by our institutional animal care committee. […] After 7 days in vitro (DIV 7), cultures were shifted into a growth medium identical to the plating medium but lacking fetal serum. At DIV 7 - 9, […] cytosine arabinofuranoside was included to halt overgrowth of glia. Mixed cultures of neurons and glia were then fed twice a week."}, "[2]": {"assay": "DPPH anti-oxidant assay (decrease in DPPH absorption at 517 nm)", "format": "biochemical", "settings": "mean ± SEM, n = 3, DPPH alone 1.2", "protocol": "To examine anti-oxidant effect, DPPH (2,2-diphenyl-1-picryl-hydrazyl radical), a stable free radical, was dissolved in ethanol to make a 100 µM solution. A compound was reacted with DPPH or ethanol. After incubation for 30 min, relative decrease in DPPH absorption at 517 nm was measured by a spectrophotometer."}, "[3]": {"tested_on": "Mouse cortical cell cultures", "assay": "Fe^2+-induced free radical neurotoxicity in cortical cell cultures (LDH release)", "format": "cell-based", "settings": "for effect on Fe^2+-induced neuronal death: 1 µM compound; for effect on Fe^2+-induced neuronal death / effect on Fe^2+-induced free radical neurotoxicity: continuous 50 µM Fe^2+; for protection against free radical neurotoxicity relative to NBAS / prevention of free radical neurotoxicity relative to BAS: comparison in words; for effect on Fe^2+-induced free radical neurotoxicity: 10 µM compound", "protocol": "as §1"}, "[4]": {"tested_on": "Mouse cortical cell cultures", "assay": "Zn^2+ neurotoxicity in cortical cell cultures (LDH release)", "format": "cell-based", "settings": "for neuroprotective effect against Zn^2+ neurotoxicity relative to BAS: comparison in words", "protocol": "as §1"}, "[5]": {"settings": "300 µM compound, 300 µM NMDA for 10 min, in words"}, "[6]": {"settings": "100 µM compound reacted with 100 uM DPPH in ethanol for 30 min"}, "[7]": {"settings": "10 µM compound reacted with 100 uM DPPH in ethanol for 30 min"}, "[8]": {"settings": "30 µM compound reacted with 100 uM DPPH in ethanol for 30 min"}, "[9]": {"settings": "300 µM compound reacted with 100 uM DPPH in ethanol for 30 min"}},
  "data": [
    {"smiles": "O=C(O)c1cc(NCCCc2ccc([N+](=O)[O-])cc2)ccc1O", "note": "[NPPAA, 5-[3-(4-nitrophenyl)-n-propyl]aminosalicylic acid]", "values": [
      {"measurement": "effect on NMDA neurotoxicity", "setting": "[1]; [5]", "result": "slightly reduced"},
      {"measurement": "A517nm", "setting": "[2]; [6]", "result": "0.09 ± 0.02"},
      {"measurement": "effect on Fe^2+-induced neuronal death", "setting": "[3]; in words", "result": "complete blockade"},
      {"measurement": "protection against free radical neurotoxicity relative to NBAS", "setting": "[3]", "result": "more effective than NBAS"}
    ]},
    {"smiles": "Nc1ccc(O)c(C(=O)O)c1", "note": "[AS, 5-amino salicylic acid]", "values": [
      {"measurement": "effect on NMDA-induced neuronal death", "setting": "[1]; 10 - 300 µM compound, 300 µM NMDA for 10 min, in words", "result": "did not attenuate"},
      {"measurement": "effect on neuronal death after exposure to Zn^2+", "setting": "[4]; 10 - 300 µM compound during and post Zn^2+ treatment, 300 µM Zn^2+ for 30 min, in words", "result": "not reduced"},
      {"measurement": "effect on free radical neurotoxicity following exposure to Fe^2+", "setting": "[3]; 10 - 100 µM compound, 24 hr-exposure to 50 µM Fe^2+, in words", "result": "dose-dependently prevented"}
    ]},
    {"smiles": "O=C(O)c1cc(NCc2c(F)c(F)c(F)c(F)c2F)ccc1O", "note": "[PBAS, 5-(pentafluorobenzyl)aminosalicylic acid]", "values": [
      {"measurement": "inhibition at 300 µM", "setting": "[1]; Mus musculus, 300 µM compound, 300 µM NMDA for 10 min, LDH 24 hr later, read-out: reduction of NMDA-induced neuronal death", "result": "~65", "unit": "%"}
    ]},
    {"smiles": "O=C(Nc1ccc(O)c(C(=O)O)c1)c1ccc([N+](=O)[O-])cc1", "note": "[NBAA, 5-(4-nitrobenzoyl)aminosalicylic acid]", "values": [
      {"measurement": "effect on NMDA neurotoxicity", "setting": "[1]; 30 µM compound, 300 µM NMDA for 10 min, in words", "result": "significantly attenuated"},
      {"measurement": "change of protective effect against NMDA with higher doses", "setting": "[1]; above 30 µM up to 300 µM, in words", "result": "not further increased"},
      {"measurement": "A517nm", "setting": "[2]; [6]", "result": "0.42 ± 0.22"},
      {"measurement": "protection against free radical neurotoxicity relative to NBAS", "setting": "[3]", "result": "weaker than NBAS"}
    ]},
    {"smiles": "O=C(O)c1cc(NCc2ccc([N+](=O)[O-])cc2)ccc1O", "note": "[NBAS, 5-(4-nitrobenzyl)aminosalicylic acid]", "values": [
      {"measurement": "neuroprotective effect against NMDA neurotoxicity relative to BAS", "setting": "[1]", "result": "did not reduce neuroprotective effects of BAS"},
      {"measurement": "neuroprotective effect against Zn^2+ neurotoxicity relative to BAS", "setting": "[4]", "result": "did not reduce neuroprotective effects of BAS"},
      {"measurement": "A517nm", "setting": "[2]; [7]", "result": "0.37±0.1"},
      {"measurement": "A517nm", "setting": "[2]; [8]", "result": "0.04 ± 0.01"},
      {"measurement": "A517nm", "setting": "[2]; [6]", "result": "0.04±0.00"},
      {"measurement": "A517nm", "setting": "[2]; [9]", "result": "0.04±0.00"},
      {"measurement": "prevention of free radical neurotoxicity relative to BAS", "setting": "[3]", "result": "more potent than BAS"}
    ]},
    {"smiles": "CCOC(=O)c1cc(NCc2ccc([N+](=O)[O-])cc2)ccc1O", "note": "[NAHE, 5-(4-nitrobenzyl)amino-2-hydroxy ethylbenzoate]", "values": [
      {"measurement": "effect on NMDA neurotoxicity", "setting": "[1]; [5]", "result": "attenuated"},
      {"measurement": "effect on Fe^2+-induced free radical neurotoxicity", "setting": "[3]; in words", "result": "blocked"}
    ]},
    {"smiles": "O=C(O)c1cc(NCc2ccc(Cl)cc2)ccc1O", "note": "[CBAS, 5-(4-chlorobenzyl)aminosalicylic acid]", "values": [
      {"measurement": "neuroprotective effect against NMDA neurotoxicity relative to BAS", "setting": "[1]", "result": "did not reduce neuroprotective effects of BAS"},
      {"measurement": "neuroprotective effect against Zn^2+ neurotoxicity relative to BAS", "setting": "[4]", "result": "did not reduce neuroprotective effects of BAS"},
      {"measurement": "prevention of free radical neurotoxicity relative to BAS", "setting": "[3]", "result": "more potent than BAS"}
    ]},
    {"smiles": "O=C(O)c1cc(NS(=O)(=O)c2ccc([N+](=O)[O-])cc2)ccc1O", "note": "[NBSAA, 5-(4-nitrobenzenesulfonyl)aminosalicylic acid]", "values": [
      {"measurement": "effect on NMDA neurotoxicity", "setting": "[1]; [5]", "result": "markedly reduced"},
      {"measurement": "effect on NMDA neurotoxicity", "setting": "[1]; 30 - 300 µM compound, 300 µM NMDA for 10 min, in words", "result": "attenuated NMDA neurotoxicity in a dose-dependent manner"},
      {"measurement": "A517nm", "setting": "[2]; [6]", "result": "0.15 ± 0.05"},
      {"measurement": "protection against free radical neurotoxicity relative to NBAS", "setting": "[3]", "result": "weaker than NBAS"}
    ]},
    {"smiles": "CCOC(=O)c1cc(N(Cc2ccc([N+](=O)[O-])cc2)C(C)=O)ccc1O", "note": "[NNAHE, 5-(4-nitrobenzyl)-N-acetylamino-2-hydroxy ethylbenzoate]", "values": [
      {"measurement": "effect on NMDA neurotoxicity", "setting": "[1]; [5]", "result": "attenuated"},
      {"measurement": "effect on Fe^2+-induced free radical neurotoxicity", "setting": "[3]; in words", "result": "blocked"}
    ]},
    {"smiles": "O=C(O)c1cc(NCc2ccc(C(F)(F)F)cc2)ccc1O", "note": "[TBAS, 5-(4-trifluoromethylbenzyl)aminosalicylic acid]", "values": [
      {"measurement": "neuroprotective effect against NMDA neurotoxicity relative to BAS", "setting": "[1]", "result": "did not reduce neuroprotective effects of BAS"},
      {"measurement": "neuroprotective effect against Zn^2+ neurotoxicity relative to BAS", "setting": "[4]", "result": "did not reduce neuroprotective effects of BAS"},
      {"measurement": "prevention of free radical neurotoxicity relative to BAS", "setting": "[3]", "result": "more potent than BAS"}
    ]},
    {"smiles": "O=C(O)c1cc(NCCc2ccc([N+](=O)[O-])cc2)ccc1O", "note": "[NPAA, 5-[2-(4-nitrophenyl)-ethyl]aminosalicylic acid]", "values": [
      {"measurement": "effect on NMDA neurotoxicity", "setting": "[1]; [5]", "result": "slightly reduced"},
      {"measurement": "A517nm", "setting": "[2]; [6]", "result": "0.09 ± 0.01"},
      {"measurement": "effect on Fe^2+-induced neuronal death", "setting": "[3]; in words", "result": "complete blockade"},
      {"measurement": "protection against free radical neurotoxicity relative to NBAS", "setting": "[3]", "result": "more effective than NBAS"}
    ]},
    {"smiles": "Cc1c(C)c2c(c(C)c1O)CCC(C)(C(=O)O)O2", "note": "(centres unmarked) [Trolox, trolox]", "values": [
      {"measurement": "A517nm", "setting": "[2]; 3 µM compound reacted with 100 uM DPPH in ethanol for 30 min", "result": "1.08±0.1"},
      {"measurement": "A517nm", "setting": "[2]; [7]", "result": "0.89±0.08"},
      {"measurement": "A517nm", "setting": "[2]; [8]", "result": "0.39±0.06"},
      {"measurement": "A517nm", "setting": "[2]; [6]", "result": "0.05±0.01"},
      {"measurement": "A517nm", "setting": "[2]; [9]", "result": "0.03±0.01"}
    ]},
    {"smiles": "CCOC(=O)c1cc(N(Cc2ccc([N+](=O)[O-])cc2)C(C)=O)ccc1OC(C)=O", "note": "[NNAAE, 5-(4-nitrobenzyl)-N-acetylamino-2-acetoxy ethylbenzoate]", "values": [
      {"measurement": "effect on NMDA neurotoxicity", "setting": "[1]; [5]", "result": "attenuated"},
      {"measurement": "effect on Fe^2+-induced free radical neurotoxicity", "setting": "[3]; in words", "result": "blocked"}
    ]}
  ]
}
